The source of these data is ChEMBL document CHEMBL3797086, “Synthesis and biological evaluation of novel structural hybrids of benzofuroxan derivatives and fluoroquinolones” (Eur J Med Chem, 2016).

≈ marks a conversion by molar mass, not a printed value.

Data set [1] deals with Pseudomonas aeruginosa. Kind of data set: microbe, parasite or virus in culture. Particulars: 9027. The format is functional.
Data set [2] deals with Escherichia coli. The data set is described as follows: microbe, parasite or virus in culture. Particulars: F-50. The format is functional.
The test system of data set [3] is Bacillus cereus. The data set is described as follows: microbe, parasite or virus in culture. The format is functional. The note with it: 8035.
The subject of data set [4] is Staphylococcus aureus. Kind of data set: microbe, parasite or virus in culture. The format is functional. The note with it: 209p.
Data set [5] has as its system Bacillus cereus. Kind of data set: microbe, parasite or virus in culture. The format is functional. Particulars: Bacillus cereus, 8035, 4 h.
For data set [6], the system named is Staphylococcus aureus. Kind of data set: microbe, parasite or virus in culture. The format is functional. Particulars: 209p, 4 h.
For data set [7], the system named is Escherichia coli. The data set is described as follows: microbe, parasite or virus in culture. The format is functional. Particulars: F-50, 4 h.
For data set [8], the system named is Pseudomonas aeruginosa. Kind of data set: microbe, parasite or virus in culture. The format is functional. The note with it: Pseudomonas aeruginosa, 9027, 4 h.
For data set [9], the system named is Bacillus cereus. The data set is described as follows: Potency index, ratio of lomefloxacin MBC to compound MBC for Bacillus cereus 8035. Format: functional.
The nature of data set [10]: in vitro. The note with it: human.
The mark [11] stands for this setting: red blood cells (RBC), at 0.19 to 3.9 µg/mL.

`CCn1cc(C(=O)O)c(=O)c2cc(F)c(N3CCNC(C)C3)c(F)c21.O=[N+]([O-])c1c(Cl)cc2c(no[n+]2[O-])c1O` (stereo not drawn): the MIC in [1] was found to be 6.3 µg/mL; in data set [2], 3.1 µg/mL; in [3], 0.97 µg/mL; in data set [4], 0.97 µg/mL. Further, the MBC in [5] stood at 1.5 µg/mL; in [6], 1.9 µg/mL; in [7], 12.5 µg/mL; in data set [8], 12.5 µg/mL. Besides, the Ratio in data set [9] is 8. Moreover, the hemolysis at 1 h in data set [10] (setting [11]) is ≤ 1%.
In the case of `CC1CN(c2c(F)c(N)c3c(=O)c(C(=O)O)cn(C4CC4)c3c2F)CC(C)N1.O=[N+]([O-])c1c(Cl)cc2c(no[n+]2[O-])c1O` (stereo not drawn), the MIC in data set [1] was 3.1 µg/mL; in data set [2] it was 1.5 µg/mL; in data set [3], 0.19 µg/mL; in data set [4] it was 0.39 µg/mL. Besides, the MBC in data set [5] came to 1.5 µg/mL; in data set [6] it was 0.39 µg/mL; in data set [7], 1.5 µg/mL; in data set [8] it was 6.3 µg/mL. The hemolysis at 1 h in data set [10] (setting [11]) is ≤ 1%.
Turning to `O=C(O)c1cn(C2CC2)c2cc(N3CCNCC3)c(F)cc2c1=O.O=[N+]([O-])c1c(Cl)cc2c(no[n+]2[O-])c1O`, the MIC turned out to be 15.6 µg/mL in data set [1], 7.8 µg/mL in data set [3] and 3.9 µg/mL in data set [4]. Further, the figures for the MBC in data set [5], in [6] and in data set [8] were 62.5 µg/mL, 7.8 µg/mL and 31.3 µg/mL, respectively.
As for `CCn1cc(C(=O)O)c(=O)c2cc(F)c(N3CCNCC3)cc21.O=[N+]([O-])c1c(Cl)cc2c(no[n+]2[O-])c1O`, the results for the MIC in [1], in data set [3] and in data set [4] were 31.3 µg/mL, 7.8 µg/mL and 7.8 µg/mL, respectively. For the same molecule, the MBC was 15.6 µg/mL in data set [5], 31.3 µg/mL in data set [6], > 500 µg/mL in [7] and > 500 µg/mL in data set [8]. Moreover, in data set [10] (setting [11]), the hemolysis at 1 h was ≤ 1%.
Consider `O=C(O)c1cn(C2CC2)c2cc(N3CCNCC3)c(F)cc2c1=O` [CIPROFLOXACIN], for which the MIC in data set [1] worked out at 0.39 µg/mL (≈ 1.18 µM); in data set [3], 0.39 µg/mL (≈ 1.18 µM); in data set [4], 0.19 µg/mL (≈ 0.573 µM). The MBC stood at 6.3 µg/mL (≈ 19 µM) in [5], 1.5 µg/mL (≈ 4.53 µM) in data set [6], 3.1 µg/mL (≈ 9.36 µM) in [7] and 3.1 µg/mL (≈ 9.36 µM) in [8]. The hemolysis at 1 h in data set [10] (erythrocyte) was ≤ 1%.
As to `CCn1cc(C(=O)O)c(=O)c2cc(F)c(N3CCNC(C)C3)c(F)c21` (stereo not drawn) [LOMEFLOXACIN], the MIC in data set [1] was 6.3 µg/mL (≈ 17.9 µM); in [2], 3.1 µg/mL (≈ 8.82 µM); in [3], 6.3 µg/mL (≈ 17.9 µM); in [4], 0.78 µg/mL (≈ 2.22 µM). Besides, the MBC worked out at 12.5 µg/mL (≈ 35.6 µM) in data set [5], 3.1 µg/mL (≈ 8.82 µM) in [6], 6.3 µg/mL (≈ 17.9 µM) in data set [7] and 12.5 µg/mL (≈ 35.6 µM) in [8]. In addition, the hemolysis at 1 h in data set [10] (setting [11]) is ≤ 1%.
As to `CCn1cc(C(=O)O)c(=O)c2cc(F)c(N3CCNCC3)cc21` [NORFLOXACIN], the MIC stood at 3.1 µg/mL (≈ 9.71 µM) in data set [1], 0.19 µg/mL (≈ 0.595 µM) in [2], 1.5 µg/mL (≈ 4.7 µM) in data set [3] and 0.39 µg/mL (≈ 1.22 µM) in [4]. Moreover, the MBC in data set [5] came out at 3.1 µg/mL (≈ 9.71 µM); in data set [6], 6.3 µg/mL (≈ 19.7 µM); in [7] it was 3.1 µg/mL (≈ 9.71 µM); in data set [8], 25 µg/mL (≈ 78.3 µM). In addition, the hemolysis at 1 h in data set [10] (setting [11]) is ≤ 1%.
In the case of `C[C@@H]1CN(c2c(F)c(N)c3c(=O)c(C(=O)O)cn(C4CC4)c3c2F)C[C@H](C)N1` [SPARFLOXACIN], the MIC turned out to be 0.78 µg/mL (≈ 1.99 µM) in [1], 0.19 µg/mL (≈ 0.484 µM) in [2], 0.19 µg/mL (≈ 0.484 µM) in [3] and 0.19 µg/mL (≈ 0.484 µM) in [4]. Moreover, the MBC in [5] came to 3.1 µg/mL (≈ 7.9 µM); in data set [6], 0.39 µg/mL (≈ 0.994 µM); in data set [7], 3.1 µg/mL (≈ 7.9 µM); in data set [8], 3.1 µg/mL (≈ 7.9 µM). Also, the hemolysis at 1 h in [10] (setting [11]) was ≤ 1%.
